Results reported in publication PMC11550998, “Novel 5-HT7 receptor antagonists modulate intestinal immune responses and reduce severity of colitis” (American Journal of Physiology - Gastrointestinal and Liver …, 2024).

Key:
[1] = target: T1, D3 (Homo sapiens, UniProt P35462); assay: PDSP selectivity profiling, D3; assay type: binding
T1 construct: NIMH Psychoactive Drug Screening Program (PDSP), assay service

[2] = target: T2, H1 (Homo sapiens, UniProt P35367); assay: PDSP selectivity profiling, H1; assay type: binding
T2 construct: NIMH Psychoactive Drug Screening Program (PDSP), assay service
Experimental: (§1) In vitro assessments of MC-170073, MC-20078, and MC-230079 activity at the following targets were determined using the assay systems available through the Psychoactive Drug Screening Program (PDSP). Detailed protocols for each assay are available at https://pdsp.unc.edu/pdspweb/?site=assays. Receptors 5-HT1A, 5-HT1B, 5-HT1D, 5-HT1E, 5-HT2A, 5-HT2B, 5-HT2C, 5-HT3, 5-HT5A, 5-HT6, 5-HT7, α1A, α1B, α1D, α2A, α2B, α2C, benzodiazepine, β1, β2, β3, GABA-A, H1, H2, H3, H4, M1, M2, M3, M4, M5, δ-opioid, κ-opioid, and µ-opioid and transporters dopamine, norepinephrine, and serotonin were evaluated.

[3] = target: T3, α2C (Homo sapiens, UniProt P18825); assay: PDSP selectivity profiling, α2C; assay type: binding
T3 construct: NIMH Psychoactive Drug Screening Program (PDSP), assay service
Experimental: as §1

[4] = target: T4, human 5HT7A-HEK membranes (Homo sapiens, UniProt P34969); assay: 5-HT7 binding assay ([3H]LSD displacement); details: Cheng-Prusoff
T4 construct: expressed in transfected cells; host or cells: HEK cells (membranes)
Experimental: Solutions of test compounds were a 10 mM stock in dimethyl sulfoxide (DMSO) and then further diluted 1:200 in assay buffer [50 mM tris(hydroxymethyl)aminomethane (TRIS), pH 7.5, 10 mM MgCl2, 0.5 mM ethylenediaminetetraacetic acid (EDTA)] to 50 µM (0.5% DMSO). Ten dilutions of the test compound in 0.5% DMSO/assay buffer were prepared in a twofold serial dilution to yield final compound concentrations ranging from 10 µM to 19.5 nM in the assay. In a 96-well polypropylene plate, 50 µL of assay buffer was added to all wells, and then 50 µL of 0.5% DMSO/assay buffer or 50 µM chlorpromazine or serial dilutions of test compounds were added to selected wells. To all wells, 100 µL of 0.2 mg/mL human 5HT7A-HEK membranes and 50 µL of 5 nM [^3H]lysergic acid diethylamide (LSD) in assay buffer were added. Reactions were incubated at room temperature for 1.5 h and harvested by rapid filtration onto 0.3% polyethyleneimine-treated GF/B filter plates using a Brandel harvester. […] Filter plates were dried overnight, scintillant was added, and the radioactivity retained on the filters was counted on a TopCount scintillation counter (PerkinElmer). Half maximal inhibitory concentration (IC50) and inhibitory constant (Ki) of test compounds were calculated using GraphPad’s Prism 5 nonlinear sigmoidal curve-fitting program. […] Ki values were calculated using the Cheng-Prusoff equation.

[5] = test system: CD4+CD45RBhigh T cell-induced colitis; assay: CD4+CD45RBhigh T cell-induced chronic colitis model; assay type: in vivo, Rag1-/- mice
Excerpt: C57BL/6 (Taconic, Cambridge City, IN) for the DSS model of colitis, as well as C57BL/6 and Rag1^−/− mice (Jackson Laboratory, Bar Harbor, ME) for the T-cell transfer model, were kept in sterilized, filter-topped cages under specific pathogen-free conditions upon arrival and fed autoclaved food. Male mice aged 8–10 wk were used for all experiments. Mice were acclimatized for 7 days before the start of any experiments. All experiments were approved by the animal ethics committee of McMaster University and conducted under Canadian guidelines for animal research.
Colitis was induced in Rag1^−/− mice by adoptive transfer of fluorescence-activated cell sorting (FACS)-sorted CD4^+CD45RB^high T cells, as described previously ([18]). Briefly, CD4^+ T cells were isolated from splenocytes of healthy C57BL/6 mice by the EasySep Mouse Naive CD4^+ T Cell Isolation Kit (StemCell Technology, Vancouver, Canada). Naive CD4^+ T cells were then labeled with PE-cy7-conjugated anti-mouse CD3 (BioLegend, San Diego, CA), allophycocyanin (APC)-conjugated anti-mouse CD4 (BD Biosciences), and fluorescein isothiocyanate (FITC)-conjugated anti-mouse CD45RB (BD Biosciences, Mississauga, Canada). CD4^+CD45RB^high T cells were sorted using a FACS Aria II flow cytometer (BD Biosciences, Mississauga, Canada). Cell viability was assessed using a Trypan blue assay before injection. Recipients were administered ∼5 × 10^5 sorted T cells via intraperitoneal injection.
For acute DSS-induced colitis, C576BL/6 mice were treated with MC-170073 (10 mg/kg of body wt) or vehicle (10% DMSO in normal saline) via intraperitoneal injection once daily for 6 days, starting 1 day before the beginning of DSS. In a separate experiment, C57BL/6 mice were orally administered with MC-230078 (10 mg/kg) or vehicle twice daily for 5 days, starting from the beginning of DSS. For chronic DSS-induced colitis, C57BL/6 mice were treated with MC-170073 (10 mg/kg ip) or vehicle once daily for 6 days, starting 1 day before the beginning of the third cycle. Last, for CD4^+CD45RB^high T cell-induced chronic colitis, reconstituted Rag1^−/− mice were orally administered MC-230078 (5 mg/kg or 10 mg/kg) or a vehicle twice daily for 10 days starting from week 6 post-reconstitution of T cells.
Disease activity index (DAI) is a combined score of weight loss, stool consistency, and fecal bleeding and was blindly assessed using a previously published scoring system ([19]). This scoring system was defined as follows: weight loss: 0 = no loss; 1 = 1–5%; 2 = 5–10%; 3 = 10–20%; 4 = 20%+; stool, 0 = normal; 2 = loose stool; 4 = diarrhea; and bleeding: 0 = no blood; 2 = hemoccult positive (Hemoccult II; Beckman Coulter, Fullerton, CA); and 4 = gross blood (blood around anus). DAI was measured across all days of DSS treatment. Macroscopic damage scores were blindly scored using a previously published scoring system for DSS-induced colitis ([19]).
Colonic myeloperoxidase (MPO) levels were measured following a published protocol ([19]). Briefly, colonic tissue samples were homogenized in ice-cold 50 mmol·L^−1 potassium phosphate buffer containing 0.5% hexadecyl trimethyl ammonium bromide (pH = 6.0) (Sigma). Homogenates were centrifuged, the supernatant was removed, and an aliquot was then added to a solution containing potassium phosphate buffer, O-dianisidine, and hydrogen peroxide (Sigma-Aldrich). The absorbance was measured at 450 nm by a spectrophotometer (model EL808, BioTek). MPO level was expressed in units per milligram of tissue, where 1 U is defined as the quantity of enzyme able to convert 1 μmol hydrogen peroxide to water per minute at room temperature.
Segments of the proximal colon were washed with PBS, fixed in 10% neutral-buffered formalin, washed with ethanol, and embedded in paraffin. […]

[6] = 10 mg/kg orally twice daily 10 days, vs vehicle

T4 sequence (P34969 1-445 isoform P34969-2): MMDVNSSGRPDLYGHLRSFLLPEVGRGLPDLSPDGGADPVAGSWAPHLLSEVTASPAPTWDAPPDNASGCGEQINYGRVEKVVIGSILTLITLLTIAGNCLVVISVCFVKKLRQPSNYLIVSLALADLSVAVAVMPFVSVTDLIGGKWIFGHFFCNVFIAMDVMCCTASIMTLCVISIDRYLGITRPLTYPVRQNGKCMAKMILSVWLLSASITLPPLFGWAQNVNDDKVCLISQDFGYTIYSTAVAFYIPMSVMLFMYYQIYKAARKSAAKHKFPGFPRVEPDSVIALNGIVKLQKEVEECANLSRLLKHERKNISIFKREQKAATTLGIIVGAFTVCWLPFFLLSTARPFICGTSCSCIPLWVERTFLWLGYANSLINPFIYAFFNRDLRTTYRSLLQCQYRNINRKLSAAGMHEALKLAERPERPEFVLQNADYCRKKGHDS
T3 sequence (P18825 whole entry): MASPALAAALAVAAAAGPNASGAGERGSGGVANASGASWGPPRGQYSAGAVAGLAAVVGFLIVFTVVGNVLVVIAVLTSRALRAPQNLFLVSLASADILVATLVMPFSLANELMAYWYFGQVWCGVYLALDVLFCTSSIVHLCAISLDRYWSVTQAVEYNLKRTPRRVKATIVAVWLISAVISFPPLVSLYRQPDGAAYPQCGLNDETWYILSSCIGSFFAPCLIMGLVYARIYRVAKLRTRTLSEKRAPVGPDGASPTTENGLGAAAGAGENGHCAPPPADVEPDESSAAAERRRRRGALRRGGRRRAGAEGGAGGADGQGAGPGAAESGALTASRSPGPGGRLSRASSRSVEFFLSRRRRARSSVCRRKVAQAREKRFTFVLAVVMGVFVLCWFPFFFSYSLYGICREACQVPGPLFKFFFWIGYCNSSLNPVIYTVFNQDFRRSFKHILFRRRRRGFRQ
T1 sequence (P35462 whole entry): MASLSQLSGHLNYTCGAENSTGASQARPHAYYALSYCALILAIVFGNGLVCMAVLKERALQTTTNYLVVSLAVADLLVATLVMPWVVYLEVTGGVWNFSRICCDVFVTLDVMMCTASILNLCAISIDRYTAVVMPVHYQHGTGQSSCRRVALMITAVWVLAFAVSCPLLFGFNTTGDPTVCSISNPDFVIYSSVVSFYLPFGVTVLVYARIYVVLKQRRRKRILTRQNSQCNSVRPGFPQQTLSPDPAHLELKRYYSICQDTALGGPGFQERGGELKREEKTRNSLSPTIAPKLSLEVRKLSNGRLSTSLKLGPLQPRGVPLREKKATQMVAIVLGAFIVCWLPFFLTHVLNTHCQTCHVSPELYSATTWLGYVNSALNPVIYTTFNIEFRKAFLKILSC
T2 sequence (P35367 whole entry): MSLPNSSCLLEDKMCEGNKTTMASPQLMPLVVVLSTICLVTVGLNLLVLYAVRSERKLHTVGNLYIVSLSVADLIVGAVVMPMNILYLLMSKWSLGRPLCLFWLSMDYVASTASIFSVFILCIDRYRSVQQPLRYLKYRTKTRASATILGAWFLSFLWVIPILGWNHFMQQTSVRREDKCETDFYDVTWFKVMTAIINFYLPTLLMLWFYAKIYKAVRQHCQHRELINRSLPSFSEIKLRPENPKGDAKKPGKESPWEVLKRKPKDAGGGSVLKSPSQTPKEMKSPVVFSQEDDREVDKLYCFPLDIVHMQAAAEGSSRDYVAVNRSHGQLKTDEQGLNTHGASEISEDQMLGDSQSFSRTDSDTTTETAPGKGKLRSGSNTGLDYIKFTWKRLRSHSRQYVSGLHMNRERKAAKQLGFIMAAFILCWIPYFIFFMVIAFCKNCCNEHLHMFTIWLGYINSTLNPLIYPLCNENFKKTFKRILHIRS

Row | Ki [1] | Ki [2] | Ki [3] | Ki [4] | Compound | DAI ([5]; 10 mg/kg orally twice daily 10 days from week 6, from day 4 of dosing, vs vehicle) | colonic IFN-γ [5, 6] | colonic IL-1β [5, 6] | colonic IL-6 [5, 6] | colonic MPO levels [5, 6] | colonic TNF-α [5, 6] | macroscopic damage [5, 6] | body weight change ([5]; between the two drug-treated groups (5 and 10 mg/kg)) | histological damage scores ([5]; higher dosage (10 mg/kg) orally twice daily 10 days) | colonic 5-HT levels ([5]; treated vs vehicle-treated mice)
1 | 1230 nM | 915 nM | 3600 nM | 89 nM | CCC1(CC)CC(CCN2CCN(c3ccc(O)cc3)CC2)OC1=O (stereo not drawn) [MC-170073] |  |  |  |  |  |  |  |  |  | 
2 |  |  |  | 106 nM | CCC1(CC)C[C@@H](CCN2CCN(c3ccc(O)cc3)CC2)OC1=O [MC-230078] | significant reduction | significant downregulation | significant downregulation | significant downregulation | significant decrease | significant downregulation | reduced | no difference | significantly lower | no differences
